Data published in PubChem BioAssay (NCI).
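96-well plates; 48 h exposure; 5 concentrations. Endpoints by linear interpolation between flanking doses. Not reached: highest tested concentration assigned. TGI denotes the concentration required for complete inhibition of growth.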

Assays:
Experiment in all cases: growth of human tumour cells (NCI), 48 h
[1] = system: MALME-3M melanoma
[2] = system: CCRF-CEM leukemia
[3] = system: TK-10 renal
[4] = system: HT29 colon
[5] = system: HOP-92 NSCLC
[6] = system: A549 NSCLC
[7] = system: BT-549 breast
[8] = system: A498 renal
[9] = system: SK-MEL-5 melanoma
[10] = system: SW-620 colon
[11] = system: SNB-19 CNS
[12] = system: MDA-MB-435
[13] = system: HL-60(TB) leukemia
[14] = system: NCI-H460 lung
[15] = system: PC-3 prostate
[16] = system: HOP-62 NSCLC
[17] = system: SF-268 CNS
[18] = system: MDA-N
[19] = system: RXF 393 renal
[20] = system: HCC-2998 colon

SMILES	TGI [1]	TGI [2]	TGI [3]	TGI [4]	TGI [5]	TGI [6]	TGI [7]	TGI [8]	TGI [9]	TGI [10]	TGI [11]	TGI [12]	TGI [13]	TGI [14]	TGI [15]	TGI [16]	TGI [17]	TGI [18]	TGI [19]	TGI [20]
CC(=O)OCCOc1cc2c([nH]c3ccccc32)c(C)c2cccc1-2	5.64 µM	> 30 µM	5.4 µM	21.6 µM	5.32 µM	> 32.2 µM	8.22 µM	26.5 µM	9.79 µM	> 24.9 µM	8.97 µM	5.6 µM	12.9 µM	7.6 µM	3.68 µM	18.5 µM	7.28 µM	11 µM	4.4 µM	
O=c1c2cc([N+](=O)[O-])ccc2n2n1CCCC2	> 100 µM	> 100 µM	> 100 µM	> 100 µM	> 100 µM	> 100 µM		> 100 µM	> 100 µM	> 100 µM	> 100 µM	> 100 µM	> 100 µM	> 100 µM	> 100 µM	> 100 µM	> 100 µM	> 100 µM	> 100 µM	> 100 µM
COc1cc(N(Cc2ccc3nc(OC)c(OC)nc3c2)Cc2ccc3nc(OC)c(OC)nc3c2)cc(OC)c1OC	> 50 µM		> 50 µM	> 50 µM		> 50 µM	> 50 µM		> 50 µM	> 50 µM	47.7 µM	> 50 µM	> 50 µM		> 50 µM	> 50 µM	> 50 µM	> 50 µM	41.6 µM	
CC(=O)O[C@H]1CCC2[C@@H]3CCC4Cc5nc6c(nc5C[C@]4(C)C3CC[C@@]21C)CC1CC[C@@H]2C(CC[C@@]3(C)C2CC[C@@H]3C(C)CCCC(C)C)[C@@]1(C)C6 (some centres not stated)	> 100 µM	> 100 µM	> 100 µM	> 100 µM	> 100 µM	> 100 µM	> 100 µM		> 100 µM	> 100 µM	> 100 µM	> 100 µM	> 100 µM	> 100 µM	> 100 µM	> 100 µM	> 100 µM	> 100 µM	> 100 µM	
C1=NCCNCCNCCN=Cc2ccccc2OCc2cccc(n2)COc2ccccc21	> 100 µM	55.1 µM		51.6 µM	> 100 µM	> 100 µM	> 100 µM	> 100 µM	> 100 µM	> 100 µM	> 100 µM	30 µM	73.7 µM	> 100 µM	> 100 µM	> 100 µM	> 100 µM	45.3 µM	> 100 µM	
CC(O)C1(CNc2cc(Cl)nc(N)n2)CC(CCc2ccccc2)C1 (configuration not stated)	26.4 µM	94.5 µM	43.1 µM	25.7 µM	25 µM	31 µM	33.6 µM	27.3 µM	19.7 µM	29.3 µM	34 µM	26.6 µM	41.7 µM	27.7 µM	25.3 µM	27.3 µM	29.4 µM	27.6 µM	30.8 µM	
C/C(=N\NC(=S)N(C)CCN(C)C(=S)N/N=C(\C)c1ccccn1)c1ccccn1	11.1 µM	12.1 µM	7.75 µM	24.4 µM	16.4 µM	13.8 µM		3 µM	2.16 µM	22.9 µM	16.6 µM	> 100 µM	3.95 µM		18.8 µM	19 µM	12 µM	19.3 µM	3.46 µM	38 µM
COC(=O)CSC(=S)Nc1nnc(NC(=S)SCOC(C)=O)n1C(=S)SCC(=O)OC		> 100 µM		> 100 µM			> 100 µM	> 100 µM	> 100 µM	> 100 µM	> 100 µM	> 100 µM	> 100 µM	> 100 µM	> 100 µM	37.5 µM	> 100 µM	> 100 µM	> 100 µM	> 100 µM
Cn1/c(=N\N=C(\CNCCO)[C@@H](O)[C@@H]2OC(c3ccccc3)OC[C@H]2O)sc2ccccc21 (some centres not stated)	32.3 µM	47.4 µM	36.3 µM	38.6 µM	32 µM	31.1 µM	37.2 µM		28.5 µM	37.5 µM	26.3 µM	35 µM		49 µM	35.5 µM	34.7 µM	30.5 µM	32.5 µM	30.9 µM	32 µM
Cc1nc2ccccc2c(=O)n1NC(=S)Nc1ccc(Cl)cc1[N+](=O)[O-]	> 100 µM	> 100 µM	> 100 µM	> 100 µM	> 100 µM	> 100 µM	> 100 µM	> 100 µM	> 100 µM	> 100 µM	> 100 µM	> 100 µM	> 100 µM	> 100 µM	> 100 µM	> 100 µM	> 100 µM	> 100 µM	> 100 µM	
CC(=O)OCC(OC(C)=O)C(OC(C)=O)C(OC(C)=O)C(C=NN(C(C)=O)S(=O)(=O)c1ccc(/C=C2\NC(=O)NC2=O)cc1)OC(C)=O (configuration not stated)	> 100 µM	> 100 µM	> 100 µM	> 100 µM		> 100 µM	> 100 µM	> 100 µM	> 100 µM	> 100 µM	> 100 µM	> 100 µM		> 100 µM	> 100 µM	> 100 µM	> 100 µM	> 100 µM	> 100 µM	> 100 µM
COc1cccc(Cc2cc(=O)c3ccc(C)nc3[nH]2)c1	> 100 µM	> 100 µM	> 100 µM	> 100 µM	> 100 µM	> 100 µM	> 100 µM	> 100 µM	> 100 µM	> 100 µM	> 100 µM	> 100 µM	> 100 µM	> 100 µM		> 100 µM	> 100 µM	> 100 µM	> 100 µM	
O=c1[nH]c(-n2[nH]c3c(c2=O)CCCC3)nc(O)c1-c1ccccc1	> 100 µM	> 100 µM	> 100 µM	> 100 µM	> 100 µM		> 100 µM	> 100 µM	> 100 µM	> 100 µM	> 100 µM	> 100 µM	> 100 µM	> 100 µM	> 100 µM		> 100 µM	> 100 µM	> 100 µM	
